Data: US6896895B2, “Carotenoid esters, carotenoid-enriched feeds, and methods of pigmenting foods and foodstuffs” (DSM IP Assets B.V., priority 2000, dated 2005)

Key:
[1] = Carotenoid ester content in plasma, back skin and abdominal fat of broilers (HPLC); format: in vivo, broiler chickens (Ross 308, Ross 508)
In short: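 Ross 308/508 broilers, raised on low-carotenoid basal diet (<2 mg xanthophylls/kg) to day 15 or 22, then fed pigment-supplemented diet for three weeks; plasma sampled day 42, back skin and abdominal fat pooled per group at slaughter on day 44. Carotenoid esters quantified by normal-phase HPLC (0.5% acetone in n-hexane) calibrated with all-E ethyl β-apo-8′-carotenoate; Z-isomers corrected by factor 1.4.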

[2] = tested on: skin and shanks of broilers; test: Reflectance colorimetry and visual classification of skin and shanks of broilers; format: in vivo, broiler chickens (Ross 308, Ross 508); design: key to Shanks Visual Classification / Skin Visual Classification: −; (+); +; ++ = good color; o = orange; conditions: for Shanks Chroma C*ab % of Controls / Shanks Color Hue h*ab % of Controls / Skin Chroma C*ab % of Controls / Skin Color Hue h*ab % of Controls / Shanks Chroma C*ab Value / Shanks Color Hue h*ab Value / Shanks Visual Classification / Skin Chroma C*ab Value / Skin Color Hue h*ab Value / Skin Visual Classification: dry carcasses
In short: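 Ross broilers were fed a low-carotenoid basal diet (<2 mg xanthophylls/kg), then received pigment-supplemented diet for three weeks and were slaughtered on day 44. Back-skin colour (mean of three points) and shank colour (single reading) were measured by Minolta chromameter (D65, 0°) and reported as CIE L*a*b*, h* and C*, averaged over ten birds (5 male, 5 female).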

[3] = average over doses, in relation to the controls (CAROPHYLL Yellow) of the same trial, Table 3
[4] = trial MC-11/99, 8.88 mg/kg feed
[5] = trial MC-11/99, 13.33 mg/kg feed

Analytical Content as Equivalent of Ethyl β-apo-8′-carotenoate Fat % [1, 3]: 88% | Analytical Content as Equivalent of Ethyl β-apo-8′-carotenoate Plasma % [1, 3]: 129% | Analytical Content as Equivalent of Ethyl β-apo-8′-carotenoate Skin % [1, 3]: 134% | concentrations determined as equivalents of the ethyl β-apo-8′-carotenoate, in the skin ([1]; in comparison to the other 12 tested carotenoid esters): substantially higher | Analytical Content as Equivalent of Ethyl β-apo-8′-carotenoate Fat ([1]; trial MC-02/99, 10 mg/kg feed): 1.8 mg/kg | Analytical Content as Equivalent of Ethyl β-apo-8′-carotenoate Plasma ([1]; trial MC-02/99, 10 mg/kg feed): 6.3 mg/kg | Analytical Content as Equivalent of Ethyl β-apo-8′-carotenoate Skin ([1]; trial MC-02/99, 10 mg/kg feed): 2.0 mg/kg | Analytical Content as Equivalent of Ethyl β-apo-8′-carotenoate Fat ([1]; trial MC-02/99, 20 mg/kg feed): 3.3 mg/kg | Analytical Content as Equivalent of Ethyl β-apo-8′-carotenoate Plasma ([1]; trial MC-02/99, 20 mg/kg feed): 13.4 mg/kg | Analytical Content as Equivalent of Ethyl β-apo-8′-carotenoate Skin ([1]; trial MC-02/99, 20 mg/kg feed): 4.1 mg/kg | Analytical Content as Equivalent of Ethyl β-apo-8′-carotenoate Fat [1, 4]: 1.2 mg/kg | Analytical Content as Equivalent of Ethyl β-apo-8′-carotenoate Plasma [1, 4]: 6.0 mg/kg | Analytical Content as Equivalent of Ethyl β-apo-8′-carotenoate Skin [1, 4]: 1.6 mg/kg | Analytical Content as Equivalent of Ethyl β-apo-8′-carotenoate Fat [1, 5]: 1.9 mg/kg | Analytical Content as Equivalent of Ethyl β-apo-8′-carotenoate Plasma [1, 5]: 8.6 mg/kg | Analytical Content as Equivalent of Ethyl β-apo-8′-carotenoate Skin [1, 5]: 2.6 mg/kg | Analytical Content as Equivalent of Ethyl β-apo-8′-carotenoate Fat ([1]; trial MC-11/99, 20 mg/kg feed): 2.9 mg/kg | Analytical Content as Equivalent of Ethyl β-apo-8′-carotenoate Plasma ([1]; trial MC-11/99, 20 mg/kg feed): 13.3 mg/kg | Analytical Content as Equivalent of Ethyl β-apo-8′-carotenoate Skin ([1]; trial MC-11/99, 20 mg/kg feed): 3.7 mg/kg | Analytical Content as Equivalent of Ethyl β-apo-8′-carotenoate Fat ([1]; trial MC-11/99, 30 mg/kg feed): 3.4 mg/kg | Analytical Content as Equivalent of Ethyl β-apo-8′-carotenoate Plasma ([1]; trial MC-11/99, 30 mg/kg feed): 18.3 mg/kg | Analytical Content as Equivalent of Ethyl β-apo-8′-carotenoate Skin ([1]; trial MC-11/99, 30 mg/kg feed): 6.1 mg/kg | Analytical Content as Equivalent of Ethyl β-apo-8′-carotenoate Fat ([1]; trial MC-11/99, 45 mg/kg feed): 6.4 mg/kg | Analytical Content as Equivalent of Ethyl β-apo-8′-carotenoate Plasma ([1]; trial MC-11/99, 45 mg/kg feed): 30.6 mg/kg | Analytical Content as Equivalent of Ethyl β-apo-8′-carotenoate Skin ([1]; trial MC-11/99, 45 mg/kg feed): 9.0 mg/kg | Analytical Content as Equivalent of Ethyl β-apo-8′-carotenoate Fat ([1]; trial MC-24/98, 15 mg/kg feed): 2.3 mg/kg | Analytical Content as Equivalent of Ethyl β-apo-8′-carotenoate Plasma ([1]; trial MC-24/98, 15 mg/kg feed): 10.0 mg/kg | Analytical Content as Equivalent of Ethyl β-apo-8′-carotenoate Skin ([1]; trial MC-24/98, 15 mg/kg feed): 2.5 mg/kg | Analytical Content as Equivalent of Ethyl β-apo-8′-carotenoate Fat ([1]; trial MC-24/98, 30 mg/kg feed): 4.5 mg/kg | Analytical Content as Equivalent of Ethyl β-apo-8′-carotenoate Plasma ([1]; trial MC-24/98, 30 mg/kg feed): 19.9 mg/kg | Analytical Content as Equivalent of Ethyl β-apo-8′-carotenoate Skin ([1]; trial MC-24/98, 30 mg/kg feed): 5.6 mg/kg
Compound: CC1=C(/C=C/C(C)=C/C=C/C(C)=C/C=C/C=C(C)/C=C/C=C(\C)C(=O)OC(C)C)C(C)(C)CCC1 [compound (17), isopropyl beta-apo-8′-carotenoate]
Shanks Chroma C*ab % of Controls ([2]; average over doses, Table 5): 115% | Shanks Color Hue h*ab % of Controls ([2]; average over doses, Table 5): 99% | Skin Chroma C*ab % of Controls ([2]; average over doses, Table 5): 113% | Skin Color Hue h*ab % of Controls ([2]; average over doses, Table 5): 102% | Shanks Chroma C*ab % of Controls [2, 5]: 97% | Shanks Chroma C*ab Value [2, 5]: 70 | Shanks Color Hue h*ab % of Controls [2, 5]: 99% | Shanks Color Hue h*ab Value [2, 5]: 84 | Shanks Visual Classification [2, 5]: (+) | Skin Chroma C*ab % of Controls [2, 5]: 116% | Skin Chroma C*ab Value [2, 5]: 29 | Skin Color Hue h*ab % of Controls [2, 5]: 105% | Skin Color Hue h*ab Value [2, 5]: 77 | Skin Visual Classification [2, 5]: (+) | Shanks Chroma C*ab % of Controls ([2]; trial MC-11/99, 20 mg/kg feed): 125% | Shanks Chroma C*ab Value ([2]; trial MC-11/99, 20 mg/kg feed): 59 | Shanks Color Hue h*ab % of Controls ([2]; trial MC-11/99, 20 mg/kg feed): 103% | Shanks Color Hue h*ab Value ([2]; trial MC-11/99, 20 mg/kg feed): 87 | Shanks Visual Classification ([2]; trial MC-11/99, 20 mg/kg feed): + | Skin Chroma C*ab % of Controls ([2]; trial MC-11/99, 20 mg/kg feed): 106% | Skin Chroma C*ab Value ([2]; trial MC-11/99, 20 mg/kg feed): 33 | Skin Color Hue h*ab % of Controls ([2]; trial MC-11/99, 20 mg/kg feed): 100% | Skin Color Hue h*ab Value ([2]; trial MC-11/99, 20 mg/kg feed): 78 | Skin Visual Classification ([2]; trial MC-11/99, 20 mg/kg feed): + | Shanks Chroma C*ab % of Controls ([2]; trial MC-11/99, 30 mg/kg feed): 108% | Shanks Chroma C*ab Value ([2]; trial MC-11/99, 30 mg/kg feed): 65 | Shanks Color Hue h*ab % of Controls ([2]; trial MC-11/99, 30 mg/kg feed): 97% | Shanks Color Hue h*ab Value ([2]; trial MC-11/99, 30 mg/kg feed): 83 | Shanks Visual Classification ([2]; trial MC-11/99, 30 mg/kg feed): + | Skin Chroma C*ab % of Controls ([2]; trial MC-11/99, 30 mg/kg feed): 119% | Skin Chroma C*ab Value ([2]; trial MC-11/99, 30 mg/kg feed): 40 | Skin Color Hue h*ab % of Controls ([2]; trial MC-11/99, 30 mg/kg feed): 102% | Skin Color Hue h*ab Value ([2]; trial MC-11/99, 30 mg/kg feed): 79 | Skin Visual Classification ([2]; trial MC-11/99, 30 mg/kg feed): + | Shanks Chroma C*ab % of Controls ([2]; trial MC-11/99, 45 mg/kg feed): 108% | Shanks Chroma C*ab Value ([2]; trial MC-11/99, 45 mg/kg feed): 71 | Shanks Color Hue h*ab % of Controls ([2]; trial MC-11/99, 45 mg/kg feed): 101% | Shanks Color Hue h*ab Value ([2]; trial MC-11/99, 45 mg/kg feed): 84 | Shanks Visual Classification ([2]; trial MC-11/99, 45 mg/kg feed): ++(o) | Skin Chroma C*ab % of Controls ([2]; trial MC-11/99, 45 mg/kg feed): 105% | Skin Chroma C*ab Value ([2]; trial MC-11/99, 45 mg/kg feed): 44 | Skin Color Hue h*ab % of Controls ([2]; trial MC-11/99, 45 mg/kg feed): 103% | Skin Color Hue h*ab Value ([2]; trial MC-11/99, 45 mg/kg feed): 79 | Skin Visual Classification ([2]; trial MC-11/99, 45 mg/kg feed): ++ | Shanks Chroma C*ab % of Controls ([2]; trial MC-24/98, 30 mg/kg feed): 137% | Shanks Chroma C*ab Value ([2]; trial MC-24/98, 30 mg/kg feed): 71 | Shanks Color Hue h*ab % of Controls ([2]; trial MC-24/98, 30 mg/kg feed): 93% | Shanks Color Hue h*ab Value ([2]; trial MC-24/98, 30 mg/kg feed): 80 | Shanks Visual Classification ([2]; trial MC-24/98, 30 mg/kg feed): + | Skin Chroma C*ab % of Controls ([2]; trial MC-24/98, 30 mg/kg feed): 119% | Skin Chroma C*ab Value ([2]; trial MC-24/98, 30 mg/kg feed): 39 | Skin Color Hue h*ab % of Controls ([2]; trial MC-24/98, 30 mg/kg feed): 102% | Skin Color Hue h*ab Value ([2]; trial MC-24/98, 30 mg/kg feed): 82 | Skin Visual Classification ([2]; trial MC-24/98, 30 mg/kg feed): + | chroma C*a*b* values in the skin and in the shanks ([2]; versus the control): substantially enhanced | color hue h*a*b* in the skin and in the shanks ([2]; versus the control): not significantly changed | effectiveness in terms of concentration in the skin, and color intensity (chroma C*a*b*) in the skin and shanks ([2]; versus the control): significantly more effective
